Measured values as given in US12600709B2, “Nonpeptide somatostatin type 5 receptor agonists and uses thereof” (Crinetics Pharmaceuticals, Inc., priority 2019, dated 2026).
Read-outs that look alike come from different tables or passages of the source.

Columns and labels:
[1] = target: T1, human somatostatin receptor subtype 5 (Homo sapiens, UniProt P35346); test: cAMP assay for SST5R (inhibition of cAMP in CHO-K1 cells); assay type: cell-based; conditions: for EC50: inhibition of cAMP via human SST5 receptor, read-out: SST5 potency
T1 construct: expressed in transfected cells
Outline: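 CHO-K1 cells stably expressing human SSTR5 were treated 20 min at 37 °C with compounds plus 1.6 μM NKH477 in HBSS, 0.5 mM HEPES pH 7.4, 0.1% BSA, 0.2 mM IBMX. Lysate cAMP measured by HTRF against a standard curve; EC50 from cAMP-versus-concentration plots.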

[2] = target: T2, human somatostatin receptor subtype 2 (Homo sapiens, UniProt P30874); test: cAMP assay for SST2R (inhibition of cAMP in CHO-K1 cells); assay type: cell-based; conditions: Table B; inhibition of cAMP via human SST2 receptor; read-out: SST2 potency
T2 construct: expressed in transfected cells
Outline: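 CHO-K1 cells stably expressing human SSTR2, plated 4 days prior, treated 20 min at 37° C with 1.6 μM NKH477 plus compound dilutions in HBSS/HEPES pH 7.4/0.1% BSA/0.2 mM IBMX. Lysate cAMP measured by HTRF against standard curve; EC50 from concentration-response.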

[3] = Table B, numeric values for comparison compounds
[4] = Table B, class symbols, SST5 receptor over SST2 receptor

T2 sequence (P30874 whole entry): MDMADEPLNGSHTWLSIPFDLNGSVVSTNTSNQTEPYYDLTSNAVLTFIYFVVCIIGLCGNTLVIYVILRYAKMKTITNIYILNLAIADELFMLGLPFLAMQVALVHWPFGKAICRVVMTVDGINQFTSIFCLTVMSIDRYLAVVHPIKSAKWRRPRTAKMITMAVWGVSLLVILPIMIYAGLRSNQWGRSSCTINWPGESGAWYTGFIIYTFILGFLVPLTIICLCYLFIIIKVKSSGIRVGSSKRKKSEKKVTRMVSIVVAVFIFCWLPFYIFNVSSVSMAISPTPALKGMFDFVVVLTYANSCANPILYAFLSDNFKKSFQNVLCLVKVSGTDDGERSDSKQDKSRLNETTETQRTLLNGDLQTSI
T1 sequence (P35346 whole entry): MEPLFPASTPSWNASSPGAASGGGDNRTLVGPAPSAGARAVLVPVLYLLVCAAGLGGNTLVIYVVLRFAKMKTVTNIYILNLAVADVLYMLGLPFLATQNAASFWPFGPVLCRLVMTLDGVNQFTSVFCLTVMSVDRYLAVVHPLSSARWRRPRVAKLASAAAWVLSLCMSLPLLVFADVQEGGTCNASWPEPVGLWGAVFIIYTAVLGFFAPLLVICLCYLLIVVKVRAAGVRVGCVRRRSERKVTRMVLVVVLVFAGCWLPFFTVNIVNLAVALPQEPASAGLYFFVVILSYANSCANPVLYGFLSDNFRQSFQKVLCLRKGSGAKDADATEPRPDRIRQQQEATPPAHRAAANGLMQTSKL

| SMILES | EC50 ([1]; Table B) [nM] | Fold selectivity for SST5 vs SST2 [1, 3] | EC50 [2] [nM] | EC50 ([1]; Table A) [nM] | Fold selectivity for SST5 vs SST2 [1, 4] |
| --- | --- | --- | --- | --- | --- |
| Cc1cc(C)cc(-c2cncc(NC(=O)c3ccc(F)c(Cl)c3)c2N2CCC(CN)C2)c1 (stereo not drawn) [N-(4-(3-(aminomethyl)pyrrolidin-1-yl)-5-(3,5-dimethylphenyl)pyridin-3-yl)-3-chloro-4-fluorobenzamide, reference compound] | > 1000 | 0.0055 | < 10 | – | – |
| C[C@]1(N)CCN(c2c(C(=O)NC3CCCCC3)cncc2-c2cc(F)cc(F)c2)C1 [1-112, 4-[(3S)-3-amino-3-methylpyrrolidin-1-yl]-N-cyclohexyl-5-(3,5-difluorophenyl)pyridine-3-carboxamide] | < 10 | – | 100 to 1000 | < 10 | +++ (+++=>500) |
| N#Cc1ncc(C(=O)NC(C2CC2)C2CC2)c(N2CC[C@H](N)C2)c1-c1cc(F)cc(F)c1 [1-70, 4-[(3S)-3-aminopyrrolidin-1-yl]-6-cyano-N-(dicyclopropylmethyl)-5-(3,5-difluorophenyl)pyridine-3-carboxamide] | < 10 | – | > 1000 | < 10 | +++ (+++=>500) |
| C[C@H](NC(=O)c1cnc(C#N)c(-c2cccc(OC(F)F)c2)c1N1CC[C@](C)(N)C1)C(F)(F)F [1-168, 4-[(3S)-3-amino-3-methylpyrrolidin-1-yl]-6-cyano-5-[3-(difluoromethoxy)phenyl]-N-[(2S)-1,1,1-trifluoropropan-2-yl]pyridine-3-carboxamide] | < 10 | – | 100 to 1000 | < 10 | +++ (+++=>500) |
| Cc1ncc(C(=O)NC2CC(F)(F)C2)c(N2CC[C@](C)(N)C2)c1-c1cc(F)cc(OC(F)F)c1 [1-172, 4-[(3S)-3-amino-3-methylpyrrolidin-1-yl]-N-(3,3-difluorocyclobutyl)-5-[3-(difluoromethoxy)-5-fluorophenyl]-6-methylpyridine-3-carboxamide] | < 10 | – | 100 to 1000 | < 10 | +++ (+++=>500) |
| C[C@H](NC(=O)c1cnc(OCc2ccccc2)c(-c2cc(F)cc(F)c2)c1N1CC[C@](C)(N)C1)C1CC1 [1-267, 4-[(3S)-3-amino-3-methylpyrrolidin-1-yl]-6-(benzyloxy)-N-[(1S)-1-cyclopropylethyl]-5-(3,5-difluorophenyl)pyridine-3-carboxamide] | < 10 | – | 100 to 1000 | < 10 | +++ (+++=>500) |
| C[C@H](NC(=O)c1cncc(-c2cccc3c2OC(F)(F)O3)c1N1CC[C@](C)(N)C1)C1CC1 [1-163, 4-[(3S)-3-amino-3-methylpyrrolidin-1-yl]-N-[(1S)-1-cyclopropylethyl]-5-(2,2-difluoro-2H-1,3-benzodioxol-4-yl)pyridine-3-carboxamide] | < 10 | – | 100 to 1000 | < 10 | ++ (++=100 to 499) |
| C[C@H](NC(=O)c1cnc(C#N)c(-c2cc(F)cc(F)c2)c1N1CC[C@](C)(N)C1)C1CC1 [1-77, 4-[(3S)-3-amino-3-methylpyrrolidin-1-yl]-6-cyano-N-[(1S)-1-cyclopropylethyl]-5-(3,5-difluorophenyl)pyridine-3-carboxamide] | < 10 | – | 10 to 100 | < 10 | +++ (+++=>500) |
| CCC(CC)NC(=O)c1cnc(C#N)c(-c2cc(F)cc(F)c2)c1N1CC[C@](C)(N)C1 [1-76, 4-[(3S)-3-amino-3-methylpyrrolidin-1-yl]-6-cyano-5-(3,5-difluorophenyl)-N-(pentan-3-yl)pyridine-3-carboxamide] | < 10 | – | > 1000 | < 10 | +++ (+++=>500) |
| CCC1(NC(=O)c2cncc(-c3cc(C)cc(F)c3)c2N2CC[C@](C)(N)C2)CCC1 [1-19, 4-[(3S)-3-amino-3-methylpyrrolidin-1-yl]-N-(1-ethylcyclobutyl)-5-(3-fluoro-5-methylphenyl)pyridine-3-carboxamide] | < 10 | – | 100 to 1000 | < 10 | ++ (++=100 to 499) |
| Cc1ncc(C(=O)NC2CCCCC2)c(N2CC[C@](C)(N)C2)c1-c1ccnc(C(F)(F)F)c1 [1-257, 4-[(3S)-3-amino-3-methylpyrrolidin-1-yl]-N-cyclohexyl-2-methyl-2′-(trifluoromethyl)-[3,4′-bipyridine]-5-carboxamide] | < 10 | – | > 1000 | < 10 | +++ (+++=>500) |
| N[C@H]1CCN(c2c(C(=O)NC3CCCCC3)cnc(C(F)(F)F)c2-c2cc(F)cc(F)c2)C1 [1-213, 4-[(3S)-3-aminopyrrolidin-1-yl]-N-cyclohexyl-5-(3,5-difluorophenyl)-6-(trifluoromethyl)pyridine-3-carboxamide] | < 10 | – | 100 to 1000 | < 10 | +++ (+++=>500) |
| N#Cc1ncc(C(=O)NC23CC(C2)C3)c(N2C[C@@H](N)[C@H](F)C2)c1-c1cc(F)cc(F)c1 [1-101, 4-[(3R,4R)-3-amino-4-fluoropyrrolidin-1-yl]-N-{bicyclo[1.1.1]pentan-1-yl}-6-cyano-5-(3,5-difluorophenyl)pyridine-3-carboxamide] | < 10 | – | > 1000 | < 10 | +++ (+++=>500) |

Second part, the compound after the results:

| EC50 ([1]; Table B) [nM] | Fold selectivity for SST5 vs SST2 [1, 3] | EC50 [2] [nM] | EC50 ([1]; Table A) [nM] | Fold selectivity for SST5 vs SST2 [1, 4] | SMILES |
| --- | --- | --- | --- | --- | --- |
| < 10 | – | 100 to 1000 | < 10 | ++ (++=100 to 499) | CC1(NC(=O)c2cncc(-c3cc(F)cc(F)c3)c2N2CC[C@](C)(N)C2)CCC1 [1-34, 4-[(3S)-3-amino-3-methylpyrrolidin-1-yl]-5-(3,5-difluorophenyl)-N-(1-methylcyclobutyl)pyridine-3-carboxamide] |
| < 10 | – | 10 to 100 | < 10 | +++ (+++=>500) | C[C@H](NC(=O)c1cnc(OCC(F)F)c(-c2cc(F)cc(F)c2)c1N1CC[C@](C)(N)C1)C1CC1 [1-177, 4-[(3S)-3-amino-3-methylpyrrolidin-1-yl]-N-[(1S)-1-cyclopropylethyl]-6-(2,2-difluoroethoxy)-5-(3,5-difluorophenyl)pyridine-3-carboxamide] |
| < 10 | – | 100 to 1000 | < 10 | ++ (++=100 to 499) | C[C@]1(N)CCN(c2c(C(=O)Nc3ccccc3F)cncc2-c2ccc(F)c(C#N)c2)C1 [1-4, 4-[(3S)-3-amino-3-methylpyrrolidin-1-yl]-5-(3-cyano-4-fluorophenyl)-N-(2-fluorophenyl)pyridine-3-carboxamide] |
| < 10 | 0.084 | < 10 | – | – | Cc1cc(C)cc(NC(=O)c2cncc(-c3cc(C)cc(C)c3)c2N2CCC(CN)C2)c1 (stereo not drawn) [4-(3-(aminomethyl)pyrrolidin-1-yl)-N,5-bis(3,5-dimethylphenyl)nicotinamide, reference compound] |
| < 10 | – | 100 to 1000 | < 10 | +++ (+++=>500) | COc1cc(C#N)cc(-c2c(C)ncc(C(=O)NC3CC(F)(F)C3)c2N2CC[C@](C)(N)C2)c1 [1-269, 4-[(3S)-3-amino-3-methylpyrrolidin-1-yl]-5-(3-cyano-5-methoxyphenyl)-N-(3,3-difluorocyclobutyl)-6-methylpyridine-3-carboxamide] |
| < 10 | – | > 1000 | < 10 | +++ (+++=>500) | C[C@H](NC(=O)c1cnc(C#N)c(-c2cc(F)cc(Cl)c2)c1N1CC[C@](C)(N)C1)c1ccccn1 [1-245, 4-[(3S)-3-amino-3-methylpyrrolidin-1-yl]-5-(3-chloro-5-fluorophenyl)-6-cyano-N-[(1 S)-1-(pyridin-2-yl)ethyl]pyridine-3-carboxamide] |
| < 10 | – | 100 to 1000 | < 10 | +++ (+++=>500) | COc1cc(-c2c(C#N)ncc(C(=O)NC3CCCCC3)c2N2CC[C@](C)(N)C2)ccn1 [1-252, 4-[(3S)-3-amino-3-methylpyrrolidin-1-yl]-2-cyano-N-cyclohexyl-2′-methoxy-[3,4′-bipyridine]-5-carboxamide] |
| < 10 | – | 100 to 1000 | < 10 | ++ (++=100 to 499) | Cc1ncc(C(=O)N[C@@H](C)C(F)(F)F)c(N2CC[C@H](N)C2)c1-c1cc(F)cc(F)c1 [1-230, 4-[(3S)-3-aminopyrrolidin-1-yl]-5-(3,5-difluorophenyl)-6-methyl-N-[(2S)-1,1,1-trifluoropropan-2-yl]pyridine-3-carboxamide] |
| < 10 | – | 100 to 1000 | < 10 | ++ (++=100 to 499) | C[C@]1(N)CCN(c2c(C(=O)NC3CC(F)(F)C3)cncc2-c2cc(F)cc(F)c2)C1 [1-30, 4-[(3S)-3-amino-3-methylpyrrolidin-1-yl]-N-(3,3-difluorocyclobutyl)-5-(3,5-difluorophenyl)pyridine-3-carboxamide] |
| < 10 | – | 100 to 1000 | < 10 | +++ (+++=>500) | C[C@H](NC(=O)c1cnc(C(F)(F)F)c(-c2cc(F)cc(F)c2)c1N1CC[C@H](N)C1)C(F)(F)F [1-212, 4-[(3S)-3-aminopyrrolidin-1-yl]-5-(3,5-difluorophenyl)-6-(trifluoromethyl)-N-[(2S)-1,1,1-trifluoropropan-2-yl]pyridine-3-carboxamide] |
